# Columns and labels:
# wild type P450cam [1] = biological target: T1, wild type P450cam (Pseudomonas putida, UniProt P00183); assay: Kapp (dissociation constant), substrate binding, wild-type; details: for Kd: WT, [K+] = 70 mM, phosphate buffer, pH 7.4, average of two measurements
# Description: (§1) Binding of potential substrates was investigated by spectroscopic methods.
# (§2) ^a Values are the average of two independent measurements using the
# (§3) method of Sligar (S. G. Sligar, Biochemistry, 1976, 15, 5399-5406). The
# (§4) value of Kapp is strongly dependent on the concentration of K^+
# (§5) in the buffer. At [K^+ ] > 150 mM. Kapp for camphor is 0.6 μM
# (§6) for both wildtype and Y96A. Data in this table were determined at [K^
# (§7) ] = 70 mM in phosphate buffer, pH 7.4, in order to avoid salting out of
# (§8) substrates at higher ion concentrations.
# (§9) ^b Saturation not reached.
# P-450cam mutant Y96A [2] = biological target: T2, P-450cam mutant Y96A (Pseudomonas putida, UniProt P00183, Y97A); assay: Kapp (dissociation constant), substrate binding, Y96A; details: for dissociation constants (Kapp) / affinity, in words: Y96A compared to wild-type
# Description: as §1, §2, §3, §4, §5, §6, §7, §8, §9
# P-450cam mutant Y96A [3] = biological target: T2, P-450cam mutant Y96A; type: binding
# P-450cam mutant Y96A [4] = biological target: T2, P-450cam mutant Y96A; assay: Hydroxylation of camphor, Y96A; type: biochemical; details: Y96A compared to wild-type
# Description: This decrease in selectivity can be attributed to the loss of the hydrogen bond between Y96 and camphor.
# P-450cam = details: wild-type; cited from earlier work
# wild type P450cam [5] = biological target: T1, wild type P450cam; type: binding; details: for conversion of haem to high-spin form / shift in absorption spectrum, in words: wild-type
# wild type P450cam [6] = biological target: T1, wild type P450cam; assay: biochemical; type: binding; details: Wild type; 200 μM DTT, 200 μM test compound, phosphate buffer; read-out: Vs DTT (percentage displacement of DTT bound to P-450)
# P-450cam mutant Y96A [7] = biological target: T2, P-450cam mutant Y96A; type: biochemical; parameters: key: Those substrates where oxidation has been demonstrated by means of NADH turnover are marked with a + sign
# P-450cam mutant Y96A [8] = biological target: T2, P-450cam mutant Y96A; assay: Gas chromatography of incubation products, Y96A; type: biochemical; details: 1 mM diphenylmethane, 1 μM P-450cam, 25° C., 30 min
# Description: The mutant protein was reconstituted with putidaredoxin and putidaredoxin reductase. Diphenylmethane (5) was added and the mixture was incubated with NADH and oxygen.
# (§10) A solution containing 10 μM putidaredoxin, 2 μM putidaredoxin reductase, 1 μM cytochrome P-450cam mono-oyxgenase (wild-type or mutant) and 1 mM diphenylmethane in 100 mM KC1, 20 mM KH2 PO4 pH7.4 was preincubated at 25° C. in a shaker for 5 min. The enzymatic reaction was initiated by firstly adding NADH to a total concentration of 2 mM. Further four aliquots of NADH (to increase the NADH concentration by 1 mM each time) were added in intervals of 5 min and the reaction quenched after 30 min by adding 0.5 ml chloroform. The chloroform layer was analysed by gas chromatography.
# Organic extracts of the crude incubation mixture were analysed by gas chromatography. […] The other aromatic hydroxylation products, the ortho and meta isomers, had different retention times. Further confirmation of the identity of the product as structure (6) was provided by mass spectrometry, which gave the correct mass peak at 184.
# [9] = biological target: T3, P450cam mutant Y96A, C334A (Pseudomonas putida, UniProt P00183, C335A/Y97A); type: biochemical, P. putida; details: also contains C334A
# T3 construct: reconstituted with putidaredoxin and putidaredoxin reductase
# Description: as §10
# Reaction products for some substrate compounds have been purified by high performance liquid chromatography and identified by mass spectroscopy, nuclear magnetic resonance, and/or co-elution. […] Table 4(a) to 4(h) details the product distributions for mutant and substrate combinations where this has been elucidated to date.
# All mutants listed below also contain the C334A mutation.
# Turnover rate measured as NADH consumption rate
# (nmole NADH/nmole P450cam/s).
# wild type P450cam [10] = biological target: T1, wild type P450cam; assay: Turnover rate measured as NADH consumption rate, wild type; type: biochemical, P. putida; parameters: reconstituted with putidaredoxin and putidaredoxin reductase
# P-450cam mutant Y96A [11] = biological target: T2, P-450cam mutant Y96A; assay: biochemical; type: binding; details: Mutant Y96A; 200 μM DTT, 200 μM test compound, phosphate buffer; read-out: Vs DTT (percentage displacement of DTT bound to P-450)
Compound,Kd (wild type P450cam [1]),Kd (P-450cam mutant Y96A [2]),"dissociation constants (Kapp) / affinity, in words (P-450cam mutant Y96A [2])","conversion of haem to high-spin form, in words (P-450cam mutant Y96A [3])","conversion of haem to high-spin form / shift in absorption spectrum, in words (wild type P450cam [5])",inhibition at 200 µM (wild type P450cam [6]),NADH turnover? (P-450cam mutant Y96A [7]),Turnover rate measured as NADH consumption rate [9],percent displacement of bound DTT at 200 µM (P-450cam mutant Y96A [11]),other results
"CC12CCC(CC1=O)C2(C)C (stereo not shown) [compound 1, camphor]",6.3 µM,12 µM,increased,not fully converted to the high-spin form,,,,,,"hydroxylation selectivity, in words (P-450cam mutant Y96A [4]): less selective; hydroxylation to 5-exo-hydroxycamphor, in words (P-450cam): regio- and stereo-selective hydroxylation"
"O=C1C2CC3CC(C2)CC1C3 [compound 2, adamantanone]",12 µM,28 µM,increased,not fully converted to the high-spin form,fully converted the haem to the high-spin form,,,,,
"C1C2CC3CC1CC(C2)C3 [compound 3, adamantane]",8.4 µM,1.4 µM,reduced,,fully converted the haem to the high-spin form,,,,,
"C1CC2CCC1C2 [compound 4, norbornane]",330 µM,92 µM,reduced,,fully converted the haem to the high-spin form,,,,,
"c1ccc(Cc2ccccc2)cc1 [compound 5, diphenylmethane]",> 1500 µM,73 µM,greatly enhanced affinity,partial conversion,did not give a shift in the absorption spectrum,5%,+,,,"binding, in words (wild type P450cam [1]; wild-type): bound poorly; new product peak by GC (para-hydroxydiphenylmethane (6)) (P-450cam mutant Y96A [8]): Only one major new peak"
C1CCCCCC1 [cycloheptane],,,,,,,,42.5 nmole NADH/nmole P450cam/s,,Turnover rate measured as NADH consumption rate (wild type P450cam [10]): 4.4 nmole NADH/nmole P450cam/s
CCCCCCC [n-Heptane],,,,,,5%,+,4.4 nmole NADH/nmole P450cam/s,40%,"ΔSpin high/low (percentage of P-450 converted from low- to high-spin) (wild type P450cam [5]; Wild type, 200 μM test compound, phosphate buffer pH 7.4): 5%; Turnover rate measured as NADH consumption rate (wild type P450cam [10]): 2.7 nmole NADH/nmole P450cam/s"
CCCCCCCCC [n-Nonane],,,,,,,+,,45%,
CCCCCCCC [n-Octane],,,,,,5%,+,5.8 nmole NADH/nmole P450cam/s,45%,
CCCCC [n-Pentane],,,,,,5%,+,5.8 nmole NADH/nmole P450cam/s,40%,

# — patent US6100074A, “Mutant mono-oxygenase cytochrome P-450 cam” (BG plc, priority 1994, dated 2000)
